Holding throughout (assay): Kinase inhibitor specificity profiling (Reaction Biology Corporation)
What all share (type): biochemical
Common to all, as to design: % Enzyme Activity (relative to DMSO controls): concentration or dose not given beside the values

Test [1] concerns the target T1, panel of 370 protein kinases (Homo sapiens, UniProt P49336).
T1 construct: purchased Reaction Biology Corporation (assay service)
The settings on record: kinase CDK8/cyclin C.

Test [2] deals with T2, panel of 370 protein kinases (Homo sapiens, UniProt Q07912).
T2 construct: purchased Reaction Biology Corporation (assay service)
The settings on record: 2 h, kinase ACK1; read-out: % Enzyme Activity (relative to DMSO controls).

Test [3] concerns the target T3, panel of 370 protein kinases (Homo sapiens, UniProt Q9BZL6).
T3 construct: purchased Reaction Biology Corporation (assay service)
The note with it: 2 h, kinase PKD2/PRKD2; read-out: % Enzyme Activity (relative to DMSO controls).

For test [4], the target named is T4, panel of 370 protein kinases (Homo sapiens, UniProt P04629).
T4 construct: purchased Reaction Biology Corporation (assay service)
The note with it: 2 h, kinase TRKA; read-out: % Enzyme Activity (relative to DMSO controls).

Test [5] concerns the target T5, panel of 370 protein kinases (Homo sapiens, UniProt Q96NX5).
T5 construct: purchased Reaction Biology Corporation (assay service)
The settings on record: 2 h, kinase CAMK1g; read-out: % Enzyme Activity (relative to DMSO controls).

In test [6] the target is T6, panel of 370 protein kinases (Homo sapiens, UniProt P14616).
T6 construct: purchased Reaction Biology Corporation (assay service)
The settings on record: 2 h, kinase IRR/INSRR; read-out: % Enzyme Activity (relative to DMSO controls).

For test [7], the target named is T7, panel of 370 protein kinases (Homo sapiens, UniProt P27448).
T7 construct: purchased Reaction Biology Corporation (assay service)
The settings on record: 2 h, kinase MARK3; read-out: % Enzyme Activity (relative to DMSO controls).

The target in test [8] is T8, panel of 370 protein kinases (Homo sapiens, UniProt Q9UBS0).
T8 construct: purchased Reaction Biology Corporation (assay service)
The note with it: 2 h, kinase p70S6Kb/RPS6KB2; read-out: % Enzyme Activity (relative to DMSO controls).

Test [9] has as its target T9, panel of 370 protein kinases (Homo sapiens, UniProt Q9H4A3).
T9 construct: purchased Reaction Biology Corporation (assay service)
The note with it: kinase WNK1.

For test [10], the target named is T10, panel of 370 protein kinases (Homo sapiens, UniProt Q02763).
T10 construct: purchased Reaction Biology Corporation (assay service)
The note with it: 2 h, kinase TIE2/TEK; read-out: % Enzyme Activity (relative to DMSO controls).

Test [11] has as its target T11, panel of 370 protein kinases (Homo sapiens, UniProt O14920).
T11 construct: purchased Reaction Biology Corporation (assay service)
The note with it: 2 h, kinase IKKb/IKBKB; read-out: % Enzyme Activity (relative to DMSO controls).

Test [12] deals with T12, panel of 370 protein kinases (Homo sapiens, UniProt Q15208).
T12 construct: purchased Reaction Biology Corporation (assay service)
The note with it: 2 h, kinase STK38/NDR1; read-out: % Enzyme Activity (relative to DMSO controls).

For test [13], the target named is T13, panel of 370 protein kinases (Homo sapiens, UniProt P24723).
T13 construct: purchased Reaction Biology Corporation (assay service)
The note with it: 2 h, kinase PKCeta; read-out: % Enzyme Activity (relative to DMSO controls).

Test [14] concerns the target T14, panel of 370 protein kinases (Homo sapiens, UniProt Q8IWQ3).
T14 construct: purchased Reaction Biology Corporation (assay service)
The note with it: 2 h, kinase BRSK2; read-out: % Enzyme Activity (relative to DMSO controls).

Test [15] concerns the target T15, panel of 370 protein kinases (Homo sapiens, UniProt Q86UE8).
T15 construct: purchased Reaction Biology Corporation (assay service)
The settings on record: 2 h, kinase TLK2; read-out: % Enzyme Activity (relative to DMSO controls).

Test [16] concerns the target T16, panel of 370 protein kinases (Homo sapiens, UniProt P09619).
T16 construct: purchased Reaction Biology Corporation (assay service)
The note with it: 2 h, kinase PDGFRb; read-out: % Enzyme Activity (relative to DMSO controls).

The target in test [17] is T17, panel of 370 protein kinases (Homo sapiens, UniProt P23443).
T17 construct: purchased Reaction Biology Corporation (assay service)
The settings on record: 2 h, kinase p70S6K/RPS6KB1; read-out: % Enzyme Activity (relative to DMSO controls).

The target of test [18] is T18, panel of 370 protein kinases (Homo sapiens, UniProt Q14012).
T18 construct: purchased Reaction Biology Corporation (assay service)
The settings on record: 2 h, kinase CAMK1a; read-out: % Enzyme Activity (relative to DMSO controls).

The target of test [19] is T19, panel of 370 protein kinases (Homo sapiens, UniProt P17948).
T19 construct: purchased Reaction Biology Corporation (assay service)
The note with it: 2 h, kinase FLT1/VEGFR1; read-out: % Enzyme Activity (relative to DMSO controls).

Test [20] concerns the target T20, panel of 370 protein kinases (Homo sapiens, UniProt P15735).
T20 construct: purchased Reaction Biology Corporation (assay service)
The note with it: 2 h, kinase PHKg2; read-out: % Enzyme Activity (relative to DMSO controls).

Test [21] deals with T21, panel of 370 protein kinases (Homo sapiens, UniProt P29323).
T21 construct: purchased Reaction Biology Corporation (assay service)
The settings on record: kinase EPHB2.

Where “and” joins values, the source holds several entries; their conditions need not be identical. Equal values may be shown once.

T1 sequence (P49336 whole entry): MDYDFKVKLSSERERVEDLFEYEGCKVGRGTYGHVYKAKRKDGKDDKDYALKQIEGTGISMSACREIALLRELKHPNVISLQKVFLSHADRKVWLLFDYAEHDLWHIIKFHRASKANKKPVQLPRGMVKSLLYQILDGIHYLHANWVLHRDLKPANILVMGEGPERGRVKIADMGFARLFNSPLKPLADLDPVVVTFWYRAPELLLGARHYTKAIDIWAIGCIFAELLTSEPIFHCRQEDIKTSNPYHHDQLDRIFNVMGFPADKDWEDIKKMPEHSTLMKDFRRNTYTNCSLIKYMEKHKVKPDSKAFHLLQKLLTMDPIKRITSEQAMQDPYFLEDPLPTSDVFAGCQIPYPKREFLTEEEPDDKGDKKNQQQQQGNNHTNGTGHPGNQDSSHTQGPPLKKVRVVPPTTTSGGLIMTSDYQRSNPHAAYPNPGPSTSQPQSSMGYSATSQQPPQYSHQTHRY
T9 sequence (Q9H4A3 whole entry): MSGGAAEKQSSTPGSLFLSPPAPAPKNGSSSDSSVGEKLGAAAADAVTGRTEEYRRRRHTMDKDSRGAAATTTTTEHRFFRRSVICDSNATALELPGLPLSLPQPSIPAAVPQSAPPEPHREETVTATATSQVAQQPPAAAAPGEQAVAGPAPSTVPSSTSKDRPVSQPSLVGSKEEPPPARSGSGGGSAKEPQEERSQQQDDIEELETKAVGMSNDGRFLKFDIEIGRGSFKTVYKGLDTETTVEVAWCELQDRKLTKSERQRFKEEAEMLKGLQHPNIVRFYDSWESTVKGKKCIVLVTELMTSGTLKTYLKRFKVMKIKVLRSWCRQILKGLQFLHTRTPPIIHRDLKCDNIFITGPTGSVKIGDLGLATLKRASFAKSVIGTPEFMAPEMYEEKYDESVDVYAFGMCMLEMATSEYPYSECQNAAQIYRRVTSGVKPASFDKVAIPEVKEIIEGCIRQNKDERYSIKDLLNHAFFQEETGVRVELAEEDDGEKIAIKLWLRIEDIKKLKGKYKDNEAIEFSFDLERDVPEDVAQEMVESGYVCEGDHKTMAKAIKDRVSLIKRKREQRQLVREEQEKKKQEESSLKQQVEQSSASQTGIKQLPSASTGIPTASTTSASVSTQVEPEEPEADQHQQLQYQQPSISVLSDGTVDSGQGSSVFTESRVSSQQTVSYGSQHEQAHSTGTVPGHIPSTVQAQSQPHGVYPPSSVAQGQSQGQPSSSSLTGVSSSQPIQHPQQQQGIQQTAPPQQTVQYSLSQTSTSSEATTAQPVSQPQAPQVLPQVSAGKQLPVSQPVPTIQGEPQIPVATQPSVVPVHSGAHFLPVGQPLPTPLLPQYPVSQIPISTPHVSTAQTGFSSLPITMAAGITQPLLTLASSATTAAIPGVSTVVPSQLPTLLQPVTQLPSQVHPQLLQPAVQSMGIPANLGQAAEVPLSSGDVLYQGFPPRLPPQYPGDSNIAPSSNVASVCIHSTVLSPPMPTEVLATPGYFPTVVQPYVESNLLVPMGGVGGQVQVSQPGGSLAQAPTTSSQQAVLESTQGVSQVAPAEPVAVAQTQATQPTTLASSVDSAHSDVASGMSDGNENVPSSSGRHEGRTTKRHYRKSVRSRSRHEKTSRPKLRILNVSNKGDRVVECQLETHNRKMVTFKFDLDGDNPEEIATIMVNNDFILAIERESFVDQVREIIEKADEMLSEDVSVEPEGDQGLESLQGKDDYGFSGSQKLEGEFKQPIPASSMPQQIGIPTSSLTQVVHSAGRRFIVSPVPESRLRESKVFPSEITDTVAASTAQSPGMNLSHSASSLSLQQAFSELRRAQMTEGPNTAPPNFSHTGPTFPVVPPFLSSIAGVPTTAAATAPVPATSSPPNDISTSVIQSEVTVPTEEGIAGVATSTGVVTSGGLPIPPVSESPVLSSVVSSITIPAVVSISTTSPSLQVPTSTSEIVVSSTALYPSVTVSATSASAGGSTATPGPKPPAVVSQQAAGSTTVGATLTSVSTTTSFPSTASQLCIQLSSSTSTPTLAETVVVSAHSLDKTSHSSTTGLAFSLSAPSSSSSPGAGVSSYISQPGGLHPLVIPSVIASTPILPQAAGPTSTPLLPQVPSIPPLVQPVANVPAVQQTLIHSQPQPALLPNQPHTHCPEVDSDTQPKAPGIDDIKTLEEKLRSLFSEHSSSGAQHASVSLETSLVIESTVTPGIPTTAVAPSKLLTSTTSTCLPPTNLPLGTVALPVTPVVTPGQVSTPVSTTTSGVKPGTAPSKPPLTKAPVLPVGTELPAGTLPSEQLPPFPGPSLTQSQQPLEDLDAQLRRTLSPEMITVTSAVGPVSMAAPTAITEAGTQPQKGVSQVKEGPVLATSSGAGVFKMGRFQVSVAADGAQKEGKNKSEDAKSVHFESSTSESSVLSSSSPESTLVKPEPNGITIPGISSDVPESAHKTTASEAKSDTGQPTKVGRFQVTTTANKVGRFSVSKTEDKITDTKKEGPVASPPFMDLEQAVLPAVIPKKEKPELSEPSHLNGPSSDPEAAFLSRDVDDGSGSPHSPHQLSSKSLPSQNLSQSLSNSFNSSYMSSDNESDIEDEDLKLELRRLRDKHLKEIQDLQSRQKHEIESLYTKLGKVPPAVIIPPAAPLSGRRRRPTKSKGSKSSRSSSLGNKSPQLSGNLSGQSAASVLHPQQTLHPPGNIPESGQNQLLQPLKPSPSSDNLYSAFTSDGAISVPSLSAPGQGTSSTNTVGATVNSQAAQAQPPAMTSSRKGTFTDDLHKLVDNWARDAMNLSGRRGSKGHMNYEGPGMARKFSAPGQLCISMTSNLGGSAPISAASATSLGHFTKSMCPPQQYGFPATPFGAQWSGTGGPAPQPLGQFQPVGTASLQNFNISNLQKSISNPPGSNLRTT
T21 sequence (P29323 19-1055): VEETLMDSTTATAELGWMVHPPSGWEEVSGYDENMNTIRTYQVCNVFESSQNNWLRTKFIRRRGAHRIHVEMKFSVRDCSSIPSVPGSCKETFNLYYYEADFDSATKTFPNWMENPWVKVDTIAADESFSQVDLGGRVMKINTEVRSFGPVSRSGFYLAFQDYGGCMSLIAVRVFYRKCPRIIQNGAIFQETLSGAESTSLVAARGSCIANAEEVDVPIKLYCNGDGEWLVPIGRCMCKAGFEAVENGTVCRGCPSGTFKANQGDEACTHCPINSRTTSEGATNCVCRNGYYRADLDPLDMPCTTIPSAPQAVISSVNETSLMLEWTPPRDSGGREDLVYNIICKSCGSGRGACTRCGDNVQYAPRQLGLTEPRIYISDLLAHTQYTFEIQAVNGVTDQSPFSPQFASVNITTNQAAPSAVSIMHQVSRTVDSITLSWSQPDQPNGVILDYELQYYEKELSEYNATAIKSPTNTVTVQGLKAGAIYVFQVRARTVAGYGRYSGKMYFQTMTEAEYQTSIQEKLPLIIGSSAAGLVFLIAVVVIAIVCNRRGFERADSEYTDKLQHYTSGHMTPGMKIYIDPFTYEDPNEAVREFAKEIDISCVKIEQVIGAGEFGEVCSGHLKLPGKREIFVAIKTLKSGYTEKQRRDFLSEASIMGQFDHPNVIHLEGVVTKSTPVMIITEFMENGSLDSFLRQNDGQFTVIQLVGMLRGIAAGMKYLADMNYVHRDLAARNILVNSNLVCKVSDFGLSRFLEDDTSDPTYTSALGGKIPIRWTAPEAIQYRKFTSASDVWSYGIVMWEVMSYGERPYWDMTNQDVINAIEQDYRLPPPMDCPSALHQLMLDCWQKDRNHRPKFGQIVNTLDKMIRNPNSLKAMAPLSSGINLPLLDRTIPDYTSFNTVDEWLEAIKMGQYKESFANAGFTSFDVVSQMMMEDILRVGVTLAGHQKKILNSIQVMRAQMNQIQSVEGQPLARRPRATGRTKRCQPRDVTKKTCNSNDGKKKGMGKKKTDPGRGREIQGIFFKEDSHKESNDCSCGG
T18 sequence (Q14012 whole entry): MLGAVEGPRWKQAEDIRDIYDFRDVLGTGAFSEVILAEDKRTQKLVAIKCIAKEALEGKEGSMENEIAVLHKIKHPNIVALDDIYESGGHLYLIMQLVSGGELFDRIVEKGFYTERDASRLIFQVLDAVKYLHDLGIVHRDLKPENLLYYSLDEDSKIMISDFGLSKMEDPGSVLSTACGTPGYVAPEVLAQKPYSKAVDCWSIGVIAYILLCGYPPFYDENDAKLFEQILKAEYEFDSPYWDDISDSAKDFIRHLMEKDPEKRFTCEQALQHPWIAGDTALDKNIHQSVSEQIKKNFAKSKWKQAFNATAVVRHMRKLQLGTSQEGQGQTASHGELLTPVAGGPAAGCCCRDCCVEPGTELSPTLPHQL
T4 sequence (P04629 33-796): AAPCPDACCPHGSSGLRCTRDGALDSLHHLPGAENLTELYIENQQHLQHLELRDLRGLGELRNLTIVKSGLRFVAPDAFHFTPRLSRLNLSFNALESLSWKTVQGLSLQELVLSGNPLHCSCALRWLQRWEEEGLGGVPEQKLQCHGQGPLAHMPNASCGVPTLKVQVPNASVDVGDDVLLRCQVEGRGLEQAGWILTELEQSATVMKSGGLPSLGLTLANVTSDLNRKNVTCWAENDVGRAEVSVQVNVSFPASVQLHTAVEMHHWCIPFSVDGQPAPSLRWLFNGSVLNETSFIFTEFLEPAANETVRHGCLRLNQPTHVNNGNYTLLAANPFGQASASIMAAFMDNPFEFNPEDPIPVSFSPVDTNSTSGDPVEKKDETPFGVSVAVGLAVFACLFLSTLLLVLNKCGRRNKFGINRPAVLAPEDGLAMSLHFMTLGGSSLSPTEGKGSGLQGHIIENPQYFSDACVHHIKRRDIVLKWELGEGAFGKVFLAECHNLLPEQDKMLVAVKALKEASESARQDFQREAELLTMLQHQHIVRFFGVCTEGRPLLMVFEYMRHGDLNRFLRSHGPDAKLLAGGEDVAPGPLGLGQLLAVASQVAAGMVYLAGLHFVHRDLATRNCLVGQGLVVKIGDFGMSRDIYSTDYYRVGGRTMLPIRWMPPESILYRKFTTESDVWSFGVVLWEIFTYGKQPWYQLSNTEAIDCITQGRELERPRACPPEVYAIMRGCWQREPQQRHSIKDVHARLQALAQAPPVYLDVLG

Consider `CCN1CCN(C(=O)c2ccc(Nc3ncc(F)c(-c4ccc5nc(N(C)C)sc5c4)n3)nc2)CC1` [YK-2-69], for which the “% Enzyme Activity (relative to DMSO controls)” value in [1] is 57.28% and 56.07%; in test [9] it was 116.91% and 108.19%; in test [21] it was 102.42% and 102.08%. The remaining activity at 1 µM in test [2] was 101%; in [3] it was 80.8%; in test [4], 104%; in test [5] it was 56.8%; in [6], 91.8%; in [7], 103%. In addition, the remaining activity at 1 µM in [8] stood at 99.4%; in [10], 87.6%; in test [11], 96%; in test [12] it was 85.5%; in [13], 77%; in test [14], 96.3%. The remaining activity at 1 µM in test [15] turned out to be 91.4%; in test [16] it was 97.5%; in test [17], 99.7%; in [18] it was 101%; in test [19], 101%; in test [20], 97.9%.

Source of the values: paper PMC9133015 (Nature Communications, 2022).
